Laboratory results taken from ChEMBL document CHEMBL1201862, “PubChem BioAssay data set” (2004).
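Interpolation was linear, between the two tested concentrations surrounding the appropriate level; five concentrations were tested over 48 hours in 96-well plates. GI50: concentration for 50% inhibition of growth.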 Calls of active or inactive are those of the source. Cut-off read from the data, not from the text of the source: active = GI50 up to about 1.1 µM and inactive = higher.

Key:
Test in all cases: NCI anticancer screen, dose series, 48 h
DLD-1 = test system: DLD-1
HL-60 = test system: HL-60
NCI-H460 = test system: NCI-H460
COLO 205 = test system: COLO 205
MOLT-4 = test system: MOLT-4
SN12C = test system: SN12C
UACC-62 = test system: UACC-62
SR = test system: SR
HCT-15 = test system: HCT-15
ACHN = test system: ACHN
786-0 = test system: 786-0
M19-MEL = test system: M19-MEL
IGROV-1 = test system: IGROV-1
Malme-3M = test system: Malme-3M
HCC 2998 = test system: HCC 2998
RXF 631 = test system: RXF 631
SNB-75 = test system: SNB-75
LXFL 529 = test system: LXFL 529
LOX IMVI = test system: LOX IMVI
DMS-114 = test system: DMS-114
SK-MEL-5 = test system: SK-MEL-5
SK-MEL-2 = test system: SK-MEL-2
U-251 = test system: U-251
HT-29 = test system: HT-29
M14 = test system: M14
OVCAR-8 = test system: OVCAR-8
EKVX = test system: EKVX
HOP-62 = test system: HOP-62
NCI-H522 = test system: NCI-H522
UO-31 = test system: UO-31
RXF 393 = test system: RXF 393
DMS-273 = test system: DMS-273
K562 = test system: K562
XF498 = test system: XF498
SF-268 = test system: SF-268
NCI-H226 = test system: NCI-H226
RPMI-8226 = test system: RPMI-8226
SW-620 = test system: SW-620
CAKI-1 = test system: CAKI-1
OVCAR-4 = test system: OVCAR-4
SNB-19 = test system: SNB-19
KM-20L2 = test system: KM-20L2
A549 = test system: A549
CCRF-CEM = test system: CCRF-CEM
HCT-116 = test system: HCT-116
SF-295 = test system: SF-295
SF-539 = test system: SF-539
UACC-257 = test system: UACC-257
A498 = test system: A498
KM12 = test system: KM12
OVCAR-5 = test system: OVCAR-5
TK-10 = test system: TK-10
SNB-78 = test system: SNB-78
SK-MEL-28 = test system: SK-MEL-28
HOP-92 = test system: HOP-92
HOP-18 = test system: HOP-18
SK-OV-3 = test system: SK-OV-3
NCI-H23 = test system: NCI-H23

Measured: GI50

O=[N+]([O-])c1ccc2nc(/C(=N/Nc3ccccc3)C(O)c3ccco3)c(O)nc2c1 (stereo not given)
inactive: DLD-1 > 100 µM | HL-60 19.9 µM | NCI-H460 > 100 µM | COLO 205 > 100 µM | MOLT-4 > 100 µM | SN12C > 100 µM | UACC-62 45.7 µM | SR 55.2 µM | ACHN > 100 µM | 786-0 > 100 µM | M19-MEL 73.5 µM | IGROV-1 > 100 µM | Malme-3M > 100 µM | HCC 2998 > 100 µM | RXF 631 > 100 µM | SNB-75 > 100 µM | LXFL 529 42.1 µM | LOX IMVI 72.4 µM | DMS-114 40 µM | SK-MEL-5 44.5 µM | SK-MEL-2 > 100 µM | U-251 > 100 µM | HT-29 > 100 µM | M14 > 100 µM | OVCAR-8 > 100 µM | EKVX 39 µM | HOP-62 37.6 µM | NCI-H522 9.55 µM | UO-31 86.5 µM | RXF 393 29.5 µM | DMS-273 > 100 µM | K562 > 100 µM | XF498 > 100 µM | SF-268 25.4 µM | NCI-H226 15.7 µM | RPMI-8226 58.3 µM | SW-620 > 100 µM | CAKI-1 85.5 µM | OVCAR-4 > 100 µM | SNB-19 > 100 µM | KM-20L2 24.5 µM | A549 > 100 µM | CCRF-CEM 27.2 µM | HCT-116 > 100 µM | SF-295 > 100 µM | SF-539 50.2 µM | UACC-257 > 100 µM | A498 > 100 µM | KM12 > 100 µM
> 100 µM: HCT-15

CSC(=S)N(C)c1nc(N(C)C)s[s+]1
inactive: DLD-1 > 100 µM | OVCAR-5 > 100 µM | HL-60 65.2 µM | NCI-H460 > 100 µM | MOLT-4 > 100 µM | SN12C > 100 µM | UACC-62 > 100 µM | SR > 100 µM | ACHN > 100 µM | 786-0 > 100 µM | TK-10 > 100 µM | M19-MEL > 100 µM | SNB-78 > 100 µM | IGROV-1 > 100 µM | Malme-3M > 100 µM | HCC 2998 > 100 µM | SK-MEL-28 > 100 µM | SNB-75 > 100 µM | LXFL 529 > 100 µM | DMS-114 > 100 µM | SK-MEL-5 > 100 µM | SK-MEL-2 > 100 µM | U-251 > 100 µM | HT-29 > 100 µM | M14 > 100 µM | OVCAR-8 > 100 µM | EKVX > 100 µM | HOP-62 > 100 µM | NCI-H522 > 100 µM | UO-31 > 100 µM | RXF 393 > 100 µM | DMS-273 > 100 µM | HOP-92 > 100 µM | K562 > 100 µM | XF498 > 100 µM | SF-268 > 100 µM | NCI-H226 > 100 µM | RPMI-8226 19.9 µM | SW-620 > 100 µM | HOP-18 > 100 µM | CAKI-1 > 100 µM | OVCAR-4 > 100 µM | SK-OV-3 > 100 µM | SNB-19 > 100 µM | KM-20L2 > 100 µM | A549 51.5 µM | NCI-H23 > 100 µM | CCRF-CEM > 100 µM | HCT-116 > 100 µM | SF-295 > 100 µM | SF-539 > 100 µM | UACC-257 > 100 µM | A498 44.4 µM | KM12 > 100 µM
> 100 µM: HCT-15
